Reference: ChEMBL document CHEMBL1201862, “PubChem BioAssay data set” (2004)
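Where inhibition never reached the appropriate level, the endpoint shown equals the highest concentration tested. Otherwise, values were interpolated linearly from a five-concentration, 48-hour dose response in 96-well plates. At the GI50, growth is halved.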 Active and inactive are the calls of the source. Cut-off read from the data, not from the text of the source: active = GI50 up to about 1.1 µM and inactive = higher.

How the values were obtained:
Assay in all cases: inhibition of tumour cell growth, NCI panel, 48 h
786-0 = system: 786-0
A498 = system: A498
CAKI-1 = system: CAKI-1
CCRF-CEM = system: CCRF-CEM
IGROV-1 = system: IGROV-1
K562 = system: K562
KM12 = system: KM12
M14 = system: M14
MDA-MB-435 = system: MDA-MB-435
NCI-H522 = system: NCI-H522
OVCAR-4 = system: OVCAR-4
OVCAR-5 = system: OVCAR-5
SF-295 = system: SF-295
SN12C = system: SN12C
SNB-19 = system: SNB-19
SR = system: SR
SK-MEL-2 = system: SK-MEL-2

| Compound | GI50 (786-0) | GI50 (A498) | GI50 (CAKI-1) | GI50 (CCRF-CEM) | GI50 (IGROV-1) | GI50 (K562) | GI50 (KM12) | GI50 (M14) | GI50 (MDA-MB-435) | GI50 (NCI-H522) | GI50 (OVCAR-4) | GI50 (OVCAR-5) | GI50 (SF-295) | GI50 (SN12C) | GI50 (SNB-19) | GI50 (SR) | GI50 (SK-MEL-2) |
| --- | --- | --- | --- | --- | --- | --- | --- | --- | --- | --- | --- | --- | --- | --- | --- | --- | --- |
| CCOC(=O)c1c(-c2ccc(OC)cc2)c(C#N)c(=S)n(C2OC(COC(C)=O)C(OC(C)=O)C(OC(C)=O)C2OC(C)=O)c1C (stereo not drawn) | > 100 µM (inactive) | > 100 µM (inactive) | > 100 µM (inactive) | 61.9 µM (inactive) | > 100 µM (inactive) | 38.4 µM (inactive) | > 100 µM (inactive) | > 100 µM (inactive) | > 100 µM (inactive) | 70.8 µM (inactive) | 20.9 µM (inactive) | > 100 µM (inactive) | > 100 µM (inactive) | > 100 µM (inactive) | > 100 µM (inactive) | > 100 µM (inactive) | – |
| C/C(Cl)=N\OC(=O)Nc1ccc(C)cc1 | 18.7 µM (inactive) | 18.8 µM (inactive) | 16.7 µM (inactive) | 2.04 µM (inactive) | 16.7 µM (inactive) | 9.91 µM (inactive) | 17.2 µM (inactive) | 17.2 µM (inactive) | – | – | 18.5 µM (inactive) | 18.5 µM (inactive) | 16.6 µM (inactive) | 15.7 µM (inactive) | > 100 µM (inactive) | 9.64 µM (inactive) | 18.2 µM (inactive) |
| COc1ccc2nc3c([N+](=O)[O-])ccc(NCCN(C)C)c3c(N)c2c1 | 1.18 µM (inactive) | 2.07 µM (inactive) | 1.8 µM (inactive) | 0.17 µM (active) | 1.15 µM (inactive) | 0.223 µM (active) | 0.469 µM (active) | 1.49 µM (inactive) | – | – | 1.24 µM (inactive) | 1.52 µM (inactive) | 1.75 µM (inactive) | 1.33 µM (inactive) | 1.84 µM (inactive) | 0.679 µM (active) | 2.37 µM (inactive) |
| CCCCCCCCCCCCCCCCCc1nc(Cl)nc(Cl)c1Cl | > 100 µM (inactive) | – | > 100 µM (inactive) | 34.8 µM (inactive) | > 100 µM (inactive) | > 100 µM (inactive) | > 100 µM (inactive) | > 100 µM (inactive) | > 100 µM (inactive) | > 100 µM (inactive) | > 100 µM (inactive) | > 100 µM (inactive) | > 100 µM (inactive) | > 100 µM (inactive) | > 100 µM (inactive) | 52.2 µM (inactive) | – |
| CC1(C)NC(C)(C)/C(=N\O)C(=NO)/C1=N/O | > 100 µM (inactive) | – | > 100 µM (inactive) | > 100 µM (inactive) | > 100 µM (inactive) | > 100 µM (inactive) | > 100 µM (inactive) | > 100 µM (inactive) | > 100 µM (inactive) | – | > 100 µM (inactive) | > 100 µM (inactive) | > 100 µM (inactive) | > 100 µM (inactive) | > 100 µM (inactive) | > 100 µM (inactive) | > 100 µM (inactive) |
| CC(=NNC(=S)Nc1ccccc1C)c1cccc(C(C)=NNC(=S)Nc2ccccc2C)n1 | 4.13 µM (inactive) | > 100 µM (inactive) | 42.9 µM (inactive) | 3.59 µM (inactive) | 26.3 µM (inactive) | 31.4 µM (inactive) | 24 µM (inactive) | 15.8 µM (inactive) | 60.4 µM (inactive) | – | 0.321 µM (active) | > 100 µM (inactive) | 8.93 µM (inactive) | 44.6 µM (inactive) | > 100 µM (inactive) | 0.262 µM (active) | 74.3 µM (inactive) |
| COc1ccc(C2=C(OC(C)=O)c3cccn3-c3ccccc3S2)cc1 | 2.46 µM (inactive) | – | 4.55 µM (inactive) | 2.9 µM (inactive) | 4.81 µM (inactive) | – | 2.62 µM (inactive) | 5.68 µM (inactive) | 0.265 µM (active) | – | 4.69 µM (inactive) | – | 1.45 µM (inactive) | 1.29 µM (inactive) | – | 3.36 µM (inactive) | – |
